Data set [1] has as its target T1, adenylyl cyclase (Homo sapiens, UniProt O95622+Q08462).
T1 construct: C1 domain (residues 442-658, VC1) of human ADCY5; C2 domain (residues 871-1082, IIC2) of human ADCY2; made in house; host or cells: Escherichia coli BL21(DE3)
Kind of data set: Forskolin-mediated, Gαs-independent adenylyl cyclase activation. It counts as biochemical.

Data set [2] concerns the target Gαs (Homo sapiens, UniProt P63092). As to the kind of experiment: Adenylyl cyclase activity assay in HEK293 cell membranes, β2AR stimulated by isoproterenol. It counts as biochemical. More on the design: endogenous in cells; host or cells: HEK293 cell membranes. The following applies: GTP/GDP 500/50 μM, 2 hours preincubation, 40 μM isoproterenol, read-out: IC50, inhibition of ISO-stimulated Gαs activity (cAMP). How it is done: We sought to test the efficacy of GN13 in B2-adrenergic receptor (β2AR) mediated second messenger stimulation in cell membranes. Membrane anchored GDP-bound Gαs is inhibited by Gβγ in the resting state. It can undergo GPCR mediated GDP to GTP exchange upon agonist stimulation (Weis and Kobilka, 2018). The presence of GN13 could potentially capture the newly generated GTP-bound Gαs and inhibit its activation (FIG. 17E). To test this idea, we incubated cell membranes prepared from HEK293 cells with GN13 and examined cAMP accumulation with or without stimulation of β2-adrenergic receptor (β2AR) by isoproterenol (ISO).
GN13 inhibition of Gαs proteins in HEK293 cell membranes (FIG. 17F and FIG. 18F).
a. Cell membrane preparation: HEK293cells, GNAS KO HEK293 cells were plated two day before transfection at a density of 1M cells per 10 cm plate. […] The protein concentrations were measured using BCA, and were normalized to 750 μg/mL. […] The cAMP concentrations were measured by the LANCE Ultra cAMP kit. […]
A cAMP standard curve was generated in the same plate using the 50 μM cAMP standard in the kit. […] 10 μL of each diluted sample was mixed with 5 μL of 4× Eu-cAMP tracer and 5 μL of 4× ULight-anti-cAMP in a white, opaque Optiplate-384 microplate, incubated for 1 hour at room temperature, and the time-resolved fluorescence resonance energy transfer (TR-FRET) signals were read on a Spark 20M plate reader. […]

Data set [3] deals with biotinylated Gαs WT and His-tagged Gβγ(C68S). Kind of data set: FRET based Gα/Gβγ interaction assay. It counts as binding, human. As to conditions: Gαs/Gβγ versus Gαi/Gβγ. As to the method:
When we compared our GD20-bound Gαs structure with another GDP-bound Gαs structure in complex with Gβγ (FIG. 20D) (Liu et al., 2019), we noticed that GD20 induces a significant conformational shift of the Gβγ binding surface, and GD20 occupies the Gβγ binding surface in a competitive manner (FIGS. 20E-20F). […] Finally, 2× stocks of cyclic peptides were added with the protein mixtures. After incubation at room temperature for 2 hour at room temperature. The plate was read on a TECAN Spark 20 M plate reader using the TR-FRET mode with the following parameters: Lag time: […], Integration time: […], Read A: Ex 320(25) nm (filter), Em 610(20) nm (filter), Gain 130, Read B: Ex 320(25) nm (filter), Em 665(8) nm (filter), Gain 165. FRET Signal was calculated as the ratio of [Read B]/[Read A].

Data set [4] is described as follows: Plasma stability assay in human plasma. It counts as in vitro ADME. As to conditions: both sexes, pooled human plasma, 37° C., values represent 95% confidence intervals. How it is done: These assays were conducted by Pharmaron Beijing CO., Ltd. Cyclic peptides working solutions were prepared at 10 μM in DMEM with 10% FBS (Avantor, Cat #76294-180) or human plasma (Pooled, Male & Female, BioIVT, Cat #HMN666664). The assays were performed in duplicate. Vials were incubated at 37° C. at 60 rpm in a water bath and taken at designated time points including 0, 480, 1080 and 1440 min. For each time point, the initiation of the reaction was staggered so all the time points were terminated with cold acetonitrile containing internal standards (IS, 100 nM alprazolam, 200 nM labetalol, 200 nM Imipramine and 2 μM ketoplofen) at the same time. Samples were vortexed then centrifuged at 4° C. to remove proteins. The supernatants from centrifugation were diluted by ultra-pure H2O and used for LC-MS/MS analysis. All calculations were carried out using GraphPad Prism. Remaining percentages of parent compounds at each time point were estimated by determining the peak area ratios from extractedion chromatograms.

Positions of bridges follow the written chain, without caps; N, C: chain ends. Non-standard residues stand in square brackets, D forms with d. Residues, ends and D or L forms follow the SMILES beside them.

Gαs, sequence (P63092 whole entry): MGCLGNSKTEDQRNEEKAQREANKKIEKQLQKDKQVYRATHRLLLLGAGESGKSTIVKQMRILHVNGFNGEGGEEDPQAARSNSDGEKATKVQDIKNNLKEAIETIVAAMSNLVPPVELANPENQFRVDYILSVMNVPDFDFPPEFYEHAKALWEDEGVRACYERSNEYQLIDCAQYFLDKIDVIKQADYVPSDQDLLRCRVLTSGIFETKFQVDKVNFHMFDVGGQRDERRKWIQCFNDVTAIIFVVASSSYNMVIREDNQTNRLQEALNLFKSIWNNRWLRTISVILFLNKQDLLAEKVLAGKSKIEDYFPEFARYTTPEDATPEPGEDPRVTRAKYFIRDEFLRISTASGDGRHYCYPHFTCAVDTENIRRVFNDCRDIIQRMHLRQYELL
T1 sequence (O95622 442-658): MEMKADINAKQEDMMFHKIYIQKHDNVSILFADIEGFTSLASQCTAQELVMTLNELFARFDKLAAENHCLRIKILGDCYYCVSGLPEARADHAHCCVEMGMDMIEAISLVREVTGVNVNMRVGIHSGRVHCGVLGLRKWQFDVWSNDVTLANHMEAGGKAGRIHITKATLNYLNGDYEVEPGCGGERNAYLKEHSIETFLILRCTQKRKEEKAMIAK
T1 sequence (Q08462 871-1082): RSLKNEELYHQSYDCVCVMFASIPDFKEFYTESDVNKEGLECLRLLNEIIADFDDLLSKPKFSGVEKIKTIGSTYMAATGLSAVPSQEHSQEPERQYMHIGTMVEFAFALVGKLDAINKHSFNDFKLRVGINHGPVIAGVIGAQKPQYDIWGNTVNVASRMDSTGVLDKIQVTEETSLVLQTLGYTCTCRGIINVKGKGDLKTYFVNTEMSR

In the case of `CC[C@H](C)[C@@H]1NC(=O)[C@H](C)NC(=O)[C@H](Cc2ccc(O)cc2)NC(=O)[C@H](C(C)C)NC(=O)[C@H](CO)NC(=O)[C@H](CCC(=O)O)NC(=O)[C@H](Cc2ccccc2)NC(=O)[C@@H](Cc2ccc(O)cc2)NC(=O)CSC[C@@H](C(=O)NCC(N)=O)NC(=O)[C@H](CC(C)C)NC(=O)[C@H]([C@@H](C)O)NC(=O)CNC(=O)[C@H](Cc2c[nH]c3ccccc23)NC1=O` [GN13] ({CH2CO}-[dY]FESVYAIWGTLCG-NH2; thioether N-13), in data set [1], the “inhibition of forskolin-mediated, Gαs-independent adenylyl cyclase activation” value is recorded as “did not inhibit”. Moreover, the half-inhibitory concentration (IC50) in data set [2] is 12.2 ± 2.51 µM.

Take `CC[C@H](C)[C@@H]1NC(=O)[C@H](CC(C)C)NC(=O)[C@@H](Cc2ccc(O)cc2)NC(=O)CSC[C@@H](C(=O)NCC(N)=O)NC(=O)[C@@H]2CCCN2C(=O)[C@H](CC(C)C)NC(=O)[C@H](CC(N)=O)NC(=O)[C@H](CC(C)C)NC(=O)[C@H](C)NC(=O)[C@H](Cc2c[nH]c3ccccc23)NC(=O)[C@H](CCC(N)=O)NC(=O)[C@H](CCCNC(=N)N)NC(=O)[C@H](Cc2ccccc2)NC(=O)[C@H]([C@@H](C)O)NC1=O` [GD20-F10L] ({CH2CO}-[dY]LITFRQWALNLPCG-NH2; thioether N-14): in data set [3], the “selectivity for Gαs than Gαi in the FRET assay” value is given as 100 fold. Further, the half-life at 10 μM in data set [4] was 7.16 to 12.7 h.

For the origin of these results see patent US20240336657A1, “G-ALPHA-S PEPTIDE INHIBITORS AND USES THEREOF” (The Regents of the University of California, priority 2021, published 2024).
